According to patent US7981918B2, “Cyclohexylpyrazole-lactam derivatives as inhibitors of 11-beta-hydroxysteroid dehydrogenase 1” (Eli Lilly and Company, priority 2006, dated 2011):

Experiments:
[1] = target: recombinant human 11β-HSD type 1 enzyme (Homo sapiens, UniProt P28845); test: 11β-HSD Type 1 Enzyme Assay (NADPH fluorescence); format: biochemical; conditions: three hour incubation at room temperature, read-out: Human 11-βHSD1 IC50
Method: 11β-HSD Type 1 Enzyme Assay
Human 11β-HSD type 1 activity is measured by assaying NADPH production by fluorescence assay. Solid compounds are dissolved in DMSO to a concentration of 10 mM. Twenty microliters of each are then transferred to a column of a 96-well polypropylene Nunc plate where they are further diluted 50-fold followed by subsequent two-fold titration, ten times across the plate with additional DMSO using a Tecan Genesis 200 automated system. Plates are then transferred to a Tecan Freedom 200 system with an attached Tecan Temo 96-well head and an Ultra 384 plate reader. Reagents are supplied in 96-well polypropylene Nunc plates and are dispensed individually into black 96-well Molecular Devices High Efficiency assay plates (40 μL/well capacity) in the following fashion: 9 μL/well of substrate (2.22 mM NADP, 55.5 μM Cortisol, 10 mM Tris, 0.25% Prionex, 0.1% Triton X100), 3 μL/well of water to compound wells or 3 μL to control and standard wells, 6 μL/well recombinant human 11β-HSD type 1 enzyme, 2 μL/well of compound dilutions. For ultimate calculation of percent inhibition, a series of wells are added that represent assay minimum and maximum: one set containing substrate with 667 μM carbenoxolone (background), and another set containing substrate and enzyme without compound (maximum signal). Final DMSO concentration is 0.5% for all compounds, controls and standards. Plates are then placed on a shaker by the robotic arm of the Tecan for 15 seconds before being covered and stacked for a three hour incubation period at room temperature. Upon completion of this incubation, the Tecan robotic arm removes each plate individually from the stacker and places them in position for addition of 5 μL/well of a 250 μM carbenoxolone solution to stop the enzymatic reaction. Plates are then shaken once more for 15 seconds then placed into an Ultra 384 microplate reader (355EX/460EM) for detection of NADPH fluorescence.

11β-HSD1 = target: T1, 11β-HSD1 (Homo sapiens, UniProt P28845); test: Human Aortic Smooth Muscle Cell Assay (cortisone to cortisol); format: cell-based; conditions: primary human aortic smooth muscle cells (AoSMC), hTNFα-induced 11β-HSD1, cortisol by immunoassay
T1 construct: containing 12 ng/mL hTNFα to induce expression of 11β-HSD1; endogenous in cells; host or cells: primary human aortic smooth muscle cells (AoSMC), induced with hTNFα
Method: Human Aortic Smooth Muscle Cell Assay
Primary human aortic smooth muscle cells (AoSMC) are cultured in 5% FBS growth medium to a passage number of 6, then pelleted by centrifugation and resuspended at a density of 9×10^4 cells/mL in 0.5% FBS assay medium containing 12 ng/mL hTNFα to induce expression of 11β-HSD1. Cells are seeded into 96-well tissue culture assay plates at 100 μL/well (9×10^3 cells/well) and incubated for 48 hours at 37° C., 5% CO2. Following induction, cells are incubated for 4 hours at 37° C., 5% CO2 in assay medium containing test compounds then treated with 10 μL/well of 10 μM cortisone solubilized in assay medium, and incubated for 16 hours at 37° C., 5% CO2. Medium from each well is transferred to a plate for subsequent analysis of cortisol using a competitive fluorescence resonance time resolved immunoassay. In solution, an allophycocyanin (APC)-cortisol conjugate and free cortisol analyte compete for binding to a mouse anti-cortisol antibody/Europium (Eu)-anti mouse IgG complex. Higher levels of free cortisol result in diminishing energy transfer from the Europium-IgG to the APC-cortisol complex resulting in less APC fluorescence. Fluorescent intensities for Europium and APC are measured using a LJL Analyst AD. Europium and APC excitation is measured using 360 nm excitation and 615 nm and 650 nm emission filters respectively. Time resolved parameters for Europuium were 1000 μs integration time with a 200 μs delay. APC parameters are set at 150 μs integration time with a 50 μs delay. Fluorescent intensities measured for APC are modified by dividing by the Eu fluorescence (APC/Eu). This ratio is then used to determine the unknown cortisol concentration by interpolation using a cortisol standard curve fitted with a 4-parameter logistic equation. These concentrations are then used to determine compound activity by plotting concentration versus % inhibition, fitting with a 4-parameter curve and reporting the IC50.

11-βHSD2 enzyme = target: T2, 11-βHSD2 enzyme (Homo sapiens, UniProt P80365); test: Selectivity assay using the 11-βHSD2 enzyme; format: biochemical; conditions: selectivity 11-βHSD1 over 11-βHSD2
T2 sequence (P80365 1-405): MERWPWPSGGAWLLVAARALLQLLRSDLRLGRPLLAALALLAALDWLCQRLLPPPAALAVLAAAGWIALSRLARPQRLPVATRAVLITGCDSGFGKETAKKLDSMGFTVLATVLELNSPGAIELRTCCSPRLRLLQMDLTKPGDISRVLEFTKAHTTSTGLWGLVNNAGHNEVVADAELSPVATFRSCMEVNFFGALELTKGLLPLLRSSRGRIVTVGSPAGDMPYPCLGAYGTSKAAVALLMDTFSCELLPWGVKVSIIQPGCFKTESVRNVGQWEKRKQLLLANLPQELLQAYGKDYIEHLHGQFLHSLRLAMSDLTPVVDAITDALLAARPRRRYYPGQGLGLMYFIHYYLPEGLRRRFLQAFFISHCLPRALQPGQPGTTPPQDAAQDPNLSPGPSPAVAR
Description: Compounds of the invention can also tested for selectivity against 11-βHSD2 in an assay similar to that described for 11-βHSD1, but using the 11-βHSD2 enzyme. The assay using the 11-βHSD2 enzyme can be carried out by the methods described herein and supplemented by methods known in the art.

cortisone conversion = test: Acute In Vivo Cortisone Conversion Assay; design: species or system mice (male C57BL/6); conditions: Mus musculus; mice, oral dose of 10 mg/kg, cortisone challenge after 16 hours, serum cortisol
Method: Acute In Vivo Cortisone Conversion Assay
In general, compounds are dosed orally into mice, the mice are challenged with a subcutaneous injection of cortisone at a set timepoint after compound injection, and the blood of each animal is collected some time later. Separated serum is then isolated and analyzed for levels of cortisone and cortisol by LC-MS/MS, followed by calculation of mean cortisol and percent inhibition of each dosing group. Specifically, male C57BL/6 mice are obtained from Harlan Sprague Dawley at average weight of 25 grams. Exact weights are taken upon arrival and the mice randomized into groups of similar weights. Compounds are prepared in 1% w-w HEC, 0.25% w-w polysorbate 80, 0.05% w-w Dow Corning antifoam #1510-US at various doses based on assumed average weight of 25 grams. Compounds are dosed orally, 200 μl per animal, followed by a subcutaneous dose, 200 μl per animal, of 30 mg/kg cortisone at 1 to 24 hours post compound dose. At 10 minutes post cortisone challenge, each animal is euthanized for 1 minute in a CO2 chamber, followed by blood collection via cardiac puncture into serum separator tubes. Once fully clotted, tubes are spun at 2500×g, 4° C. for 15 minutes, the serum transferred to wells of 96-well plates (Corning Inc, Costar #4410, cluster tubes, 1.2 ml, polypropylene), and the plates are frozen at −20° C. until analysis by LC-MS/MS. For analysis, serum samples are thawed and the proteins are precipitated by the addition of acetonitrile containing d4-cortisol internal standard. Samples are vortex mixed and centrifuged. The supernatant is removed and dried under a stream of warm nitrogen. Extracts are reconstituted in methanol/water (1:1) and injected onto the LC-MS/MS system. The levels of cortisone and cortisol are assayed by selective reaction monitoring mode following positive ACPI ionization on a triple quadrupole mass spectrophotometer.

T1 sequence (P28845 whole entry): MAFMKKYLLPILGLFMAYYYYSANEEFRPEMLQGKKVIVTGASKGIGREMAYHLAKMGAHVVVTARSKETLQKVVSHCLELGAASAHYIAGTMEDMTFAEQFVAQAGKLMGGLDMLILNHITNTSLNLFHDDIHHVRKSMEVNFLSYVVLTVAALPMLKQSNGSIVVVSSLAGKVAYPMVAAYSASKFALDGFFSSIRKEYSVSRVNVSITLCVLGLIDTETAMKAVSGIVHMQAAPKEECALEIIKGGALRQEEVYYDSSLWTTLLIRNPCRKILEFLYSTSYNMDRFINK
Chain of recombinant human 11β-HSD type 1 enzyme (P28845 whole entry): as above

Compound | IC50 [1] [nM] | IC50 (11β-HSD1) [nM] | inhibition at 10 mg/kg (cortisone conversion) [%] | other results
COc1cc(Cl)c(CC2CCN(C3CCc4n[nH]cc4C3)C2=O)c(Cl)c1 (single isomer, unassigned) [Example 7, 3-(2,6-Dichloro-4-methoxy-benzyl)-1-(4,5,6,7-tetrahydro-2H-indazol-5-yl)-pyrrolidin-2-one] | 37 | – | – | –
O=C1C(Cc2c(Cl)cc(-c3ccccc3)cc2Cl)CCN1C1CCc2n[nH]cc2C1 (centres unmarked) [Example 20] | – | 2 | – | –
O=C(c1ccc(-c2cc(Cl)c(C[C@@H]3CCN(C4CCc5n[nH]cc5C4)C3=O)c(Cl)c2)cc1)N1CCOCC1 (some centres unmarked) [Example 41] | – | – | 84 | –
O=C1[C@H](Cc2c(Cl)cc(-c3ccc(F)nc3)cc2Cl)CCN1C1CCc2n[nH]cc2C1 (some centres unmarked) [Example 44] | – | – | 92 | –

Second part, led by results:

IC50 [1] [nM] | IC50 (11β-HSD1) [nM] | Compound | inhibition at 10 mg/kg (cortisone conversion) [%] | other results
100 | – | COc1cc(Cl)c(CC2CCN(C3CCc4n[nH]cc4C3)C2=O)c(Cl)c1 (racemic) [Example 1, 3-(2,6-Dichloro-4-methoxy-benzyl)-1-(4,5,6,7-tetrahydro-2H-indazol-5-yl)-pyrrolidin-2-one] | – | –
– | 24 | Cn1cc(-c2ccc(CC3CCN(C4CCc5n[nH]cc5C4)C3=O)c(Cl)c2)cn1 (centres unmarked) [Example 11, 3-[2-Chloro-4-(1-methyl-1H-pyrazol-4-yl)-benzyl]-1-(4,5,6,7-tetrahydro-2H-indazol-5-yl)-pyrrolidin-2-one] | – | –
243 | – | O=C1[C@H](Cc2c(Cl)cc(OCc3ccccc3)cc2Cl)CCN1[C@H]1CCc2n[nH]cc2C1 [Example 35, (3R,5S)-3-(4-Benzyloxy-2,6-dichloro-benzyl)-1-(4,5,6,7-tetrahydro-2H-indazol-5-yl)-pyrrolidin-2-one] | – | –
276 | 0.4 | O=C1[C@H](Cc2c(Cl)cc(-c3ccc(F)cc3)cc2Cl)CCN1[C@H]1CCc2n[nH]cc2C1 [Example 36, (3R-5S)-(−)-3-(3,5-Dichloro-4′-fluoro-biphenyl-4-ylmethyl)-1-(4,5,6,7-tetrahydro-2H-indazol-5-yl)-pyrrolidin-2-one] | 95 | fold greater inhibition of 11-βHSD1 enzyme as compared to the inhibition of 11-βHSD2 (11-βHSD2 enzyme): 535 fold
